Laboratory results from ChEMBL document CHEMBL1201862, “PubChem BioAssay data set” (2004).
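Cells were grown in 96-well plates and exposed to each compound for 48 hours at five concentrations; endpoints were interpolated linearly between bracketing concentrations, or set to the highest concentration if not reached. At the GI50, growth is halved.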 Calls of active or inactive are those of the source. No stated cut-off is given here; in the data, active = GI50 up to about 1.1 µM and inactive = higher.

Experiments:
Experiment in all cases: inhibition of tumour cell growth, NCI panel, 48 h
[1] = system: Malme-3M
[2] = system: HOP-18
[3] = system: SK-OV-3
[4] = system: EKVX
[5] = system: SN12C
[6] = system: KM12
[7] = system: CCRF-CEM
[8] = system: NCI-H226
[9] = system: CAKI-1
[10] = system: SNB-19
[11] = system: A498
[12] = system: OVCAR-5
[13] = system: KM-20L2
[14] = system: SK-MEL-2
[15] = system: RPMI-8226
[16] = system: RXF 393
[17] = system: M14
[18] = system: TK-10

Row | SMILES | GI50 [1] | GI50 [2] | GI50 [3] | GI50 [4] | GI50 [5] | GI50 [6] | GI50 [7] | GI50 [8] | GI50 [9] | GI50 [10] | GI50 [11] | GI50 [12] | GI50 [13] | GI50 [14] | GI50 [15] | GI50 [16] | GI50 [17] | GI50 [18]
1 | CC[C@@]1(O)C[C@H](OC2CC(N(C)C)C(O)C(C)O2)c2c(cc3c(c2O)C(=O)c2c(O)ccc(O)c2C3=O)[C@H]1C(=O)OC (stereo not given in full) | 0.0807 µM (active) | 0.212 µM (active) | 0.236 µM (active) | 0.135 µM (active) | 0.0377 µM (active) | 0.0635 µM (active) | 0.0242 µM (active) | 0.108 µM (active) | 0.027 µM (active) | 0.0991 µM (active) | 0.0448 µM (active) | 0.141 µM (active) | 0.0702 µM (active) | 0.101 µM (active) | 0.0364 µM (active) | 0.0366 µM (active) | – | –
2 | O=Cc1c(Cn2ccnc2)c2cc([N+](=O)[O-])ccc2n1Cc1ccccc1 | > 100 µM (inactive) | > 25.8 µM (inactive) | > 100 µM (inactive) | > 100 µM (inactive) | > 86.5 µM (inactive) | 73.3 µM (inactive) | 63.5 µM (inactive) | > 100 µM (inactive) | > 68.4 µM (inactive) | 49.3 µM (inactive) | > 93.3 µM (inactive) | > 90.6 µM (inactive) | 89.9 µM (inactive) | > 100 µM (inactive) | > 100 µM (inactive) | > 100 µM (inactive) | – | –
3 | CC(C)=CC1CC(=O)C1(C)Sc1ccccc1 (stereo not given) | > 100 µM (inactive) | > 100 µM (inactive) | > 100 µM (inactive) | 54.2 µM (inactive) | 71.8 µM (inactive) | > 100 µM (inactive) | 19.1 µM (inactive) | 34.4 µM (inactive) | 54.7 µM (inactive) | 67.8 µM (inactive) | 56.2 µM (inactive) | > 100 µM (inactive) | 36.3 µM (inactive) | 35.2 µM (inactive) | 20.6 µM (inactive) | 26.2 µM (inactive) | 96.4 µM (inactive) | > 100 µM (inactive)
4 | COC(=O)C1C(O)C(C)C(O)OC1C(C)C(O)C(C)/C=C\C=C(/C)C(=O)Nc1c(C)c(OC(C)=O)c2c(c1O)C(=O)C(C)=C1OCOC(/C(C)=C/C(C)=O)=C12 (stereo not given) | 13.5 µM (inactive) | 15.2 µM (inactive) | 20 µM (inactive) | 11.9 µM (inactive) | 12.4 µM (inactive) | 14 µM (inactive) | 5.96 µM (inactive) | 12.4 µM (inactive) | 17.6 µM (inactive) | 15.1 µM (inactive) | 15.2 µM (inactive) | 13.5 µM (inactive) | 12.9 µM (inactive) | 12.6 µM (inactive) | 9.48 µM (inactive) | 13 µM (inactive) | – | –
5 | C=C1C(=O)OC2/C=C(\C(=O)O)CC/C=C(\C)CC(OC(=O)/C=C(\C)CC)C12 (stereo not given) | 18.2 µM (inactive) | 21.7 µM (inactive) | 20.3 µM (inactive) | 24.7 µM (inactive) | 17 µM (inactive) | 14.4 µM (inactive) | > 100 µM (inactive) | 17.9 µM (inactive) | 19.3 µM (inactive) | 18.9 µM (inactive) | 17.9 µM (inactive) | 13.5 µM (inactive) | 19.6 µM (inactive) | 14.4 µM (inactive) | 3.45 µM (inactive) | 14 µM (inactive) | 16.7 µM (inactive) | 34.6 µM (inactive)
6 | CCCCCCCCCCCCCCCCNCC(O)CN (stereo not given) | 16.2 µM (inactive) | 5.46 µM (inactive) | 18.4 µM (inactive) | 17.3 µM (inactive) | 4.07 µM (inactive) | 1.75 µM (inactive) | 1.96 µM (inactive) | 8.89 µM (inactive) | 12.2 µM (inactive) | 19.5 µM (inactive) | 18 µM (inactive) | 7.76 µM (inactive) | 2.65 µM (inactive) | 18.6 µM (inactive) | 2 µM (inactive) | 2.82 µM (inactive) | – | –
